Measurements reported in ChEMBL document CHEMBL1147138 (J Med Chem, 2007).

Legend:
[1] = target: T1, Kappa-type opioid receptor (Homo sapiens, UniProt P41145); assay: biochemical; format: cell-based, CHO
Description: Displacement of [3H]U-69593 from human opioid kappa receptor expressed in CHO cells

[2] = target: Delta-type opioid receptor (Homo sapiens, UniProt P41143); assay: biochemical; format: cell-based, CHO
Description: Displacement of [3H]naltrindole from human opioid delta receptor expressed in CHO cells

[3] = target: T1, Kappa-type opioid receptor; format: functional, cell-based, CHO
Description: Agonist activity at human opioid kappa receptor expressed in CHO cells assessed as stimulation of [35S]GTPgammaS binding

[4] = target: T2, Mu-type opioid receptor (Homo sapiens, UniProt P35372)
Description: Agonist activity at human opioid gamma receptor expressed in CHO cells assessed as stimulation of [35S]GTP-gamma-S binding

[5] = target: T2, Mu-type opioid receptor; remark: listed apart in the source
Description: Agonist activity at human opioid gamma receptor expressed in CHO cells assessed as inhibition of DAGO-stimulated [35S]GTPgammaS binding

[6] = target: T2, Mu-type opioid receptor; assay: biochemical
Description: Displacement of [3H]DAMGO from human opioid gamma receptor expressed in CHO cells

[7] = target: T1, Kappa-type opioid receptor
Description: Antagonist activity at human opioid kappa receptor expressed in CHO cells assessed as inhibition of U-50488-stimulated [35S]GTP-gamma-S binding

T1 sequence (P41145 whole entry): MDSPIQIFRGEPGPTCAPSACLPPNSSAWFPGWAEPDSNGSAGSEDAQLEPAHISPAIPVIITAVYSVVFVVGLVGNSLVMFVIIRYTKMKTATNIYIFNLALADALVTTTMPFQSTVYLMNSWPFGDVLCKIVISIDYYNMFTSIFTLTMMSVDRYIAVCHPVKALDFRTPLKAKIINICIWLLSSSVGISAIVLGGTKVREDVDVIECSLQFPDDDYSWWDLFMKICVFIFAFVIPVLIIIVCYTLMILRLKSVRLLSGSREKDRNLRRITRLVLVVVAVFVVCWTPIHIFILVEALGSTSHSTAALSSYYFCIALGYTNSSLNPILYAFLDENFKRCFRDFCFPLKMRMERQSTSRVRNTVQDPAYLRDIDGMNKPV
Chain of Delta-type opioid receptor (P41143 whole entry): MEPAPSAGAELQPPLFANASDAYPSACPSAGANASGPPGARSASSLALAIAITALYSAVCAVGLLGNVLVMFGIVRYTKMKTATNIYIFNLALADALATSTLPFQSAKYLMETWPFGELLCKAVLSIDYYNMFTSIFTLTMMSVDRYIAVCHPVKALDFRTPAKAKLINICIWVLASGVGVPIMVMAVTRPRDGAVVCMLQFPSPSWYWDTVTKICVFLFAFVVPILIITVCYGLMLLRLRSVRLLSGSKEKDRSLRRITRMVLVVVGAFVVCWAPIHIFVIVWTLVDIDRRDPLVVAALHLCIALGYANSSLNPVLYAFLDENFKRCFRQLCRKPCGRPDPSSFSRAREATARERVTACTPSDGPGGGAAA
T2 sequence (P35372 whole entry): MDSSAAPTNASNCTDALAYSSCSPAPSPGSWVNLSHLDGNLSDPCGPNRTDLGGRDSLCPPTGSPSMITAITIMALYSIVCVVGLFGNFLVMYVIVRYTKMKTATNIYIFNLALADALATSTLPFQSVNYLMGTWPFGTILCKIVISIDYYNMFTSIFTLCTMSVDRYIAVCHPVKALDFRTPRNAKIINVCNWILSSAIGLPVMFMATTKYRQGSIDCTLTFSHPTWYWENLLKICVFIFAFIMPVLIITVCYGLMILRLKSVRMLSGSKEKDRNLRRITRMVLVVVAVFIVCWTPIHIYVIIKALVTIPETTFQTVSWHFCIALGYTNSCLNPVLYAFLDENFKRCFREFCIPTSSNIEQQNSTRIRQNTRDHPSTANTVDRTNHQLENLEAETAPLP

## C=CCN1CC[C@]23c4c5ccc(OC(=O)CCCCCCCCC(=O)Oc6ccc7c(c6)[C@@]68CCCCC6[C@@H](C7)N(CC6CCC6)CC8)c4O[C@H]2C(=O)CC[C@@]3(O)[C@H]1C5 (some centres undefined)
[1]
  Ki: 0.13 nM
[2]
  Ki: 39 nM
[3]
  EC50: 1.6 nM
[4]
  EC50: 2 nM
[5]
  IC50: 25 nM
[6]
  Ki: 0.43 nM

## O=C(CCCCCCCCC(=O)Oc1ccc2c3c1O[C@H]1[C@H](O)CC[C@@]4(O)[C@@H](C2)N(CC2CCC2)CC[C@]314)Oc1ccc2c(c1)[C@@]13CCCCC1[C@@H](C2)N(CC1CCC1)CC3 (some centres undefined)
[1]
  Ki: 0.34 nM
[2]
  Ki: 28 nM
[3]
  EC50: 3.2 nM
[7]
  IC50: 600 nM
[5]
  IC50: 18 nM
[6]
  Ki: 0.46 nM

## O=C(CCCCCCCCC(=O)Oc1ccc2c3c1O[C@H]1C(=O)CC[C@@]4(O)[C@@H](C2)N(CC2CC2)CC[C@]314)Oc1ccc2c(c1)[C@@]13CCCCC1[C@@H](C2)N(CC1CCC1)CC3 (some centres undefined)
[1]
  Ki: 0.12 nM
[2]
  Ki: 15 nM
[3]
  EC50: 3.4 nM
[4]
  EC50: 4.4 nM
[5]
  IC50: 160 nM
[6]
  Ki: 0.29 nM

## O=C(O)CCCCCCCCC(=O)Oc1ccc2c(c1)[C@@]13CCCCC1[C@@H](C2)N(CC1CCC1)CC3 (some centres undefined)
[3]
  EC50: 28 nM
